# Source: patent US9169229B2, “Method for producing purified dialkyl-furan-2,5-dicarboxylate by physical separation and solid liquid separation” (Eastman Chemical Company, priority 2012, dated 2015)
# Columns and labels:
# [1] = Solubility of DMFD in water (jacketed solubility cell, samples analyzed by gas chromatography); type: physicochemical
# Procedure: (§1) The solubility of DMFD in water and methanol was tested according to the following procedure: A jacketed 120 ml solubility cells equipped with a condenser, a digital thermometer, a nitrogen blanket and connected to a circulating bath capable of heating/cooling was charged with […] and water or methanol. The heterogeneous mixture was heated to the desired temperature and sample was taken using preheated fritted glass pipette. The samples were analyzed using gas chromatography.
# [2] = Solubility of DMFD in methanol (jacketed solubility cell, samples analyzed by gas chromatography); type: physicochemical
# Procedure: as §1
structure (smiles),measurement,setting,value
"COC(=O)c1ccc(C(=O)OC)o1 [DMFD, dimethyl furan-2,5-dicarboxylate]",solubility of DMFD in water compared to methanol (in words),[1]; temperature points from about 1° C. to about 61° C.,very low solubility in water compared to methanol
same,DMFD Solubility (wt %) in Water,[1]; T 1.4 ° C.,BDL
same,DMFD Solubility (wt %) in Water,[1]; T 13.1 ° C.,BDL
same,DMFD Solubility (wt %) in Water,[1]; T 26.6 ° C.,BDL
same,DMFD Solubility (wt %) in Water,[1]; T 35.6 ° C.,BDL
same,DMFD Solubility (wt %) in Water,[1]; T 47.0 ° C.,0.1 wt %
same,DMFD Solubility (wt %) in Water,[1]; T 56.6 ° C.,0.2 wt %
same,DMFD Solubility (wt %) in Water,[1]; T 63.9 ° C.,0.3 wt %
same,DMFD Solubility (wt %) in Water,[1]; T 74.6 ° C.,0.4 wt %
same,DMFD Solubility (wt %) in Water,[1]; T 89.5 ° C.,0.9 wt %
same,DMFD Solubility (wt %) in Water,[1]; T 97.5 ° C.,1.3 wt %
same,DMFD Solubility (wt %) in Methanol,[2]; T 1.0 ° C.,0.6 wt %
same,DMFD Solubility (wt %) in Methanol,[2]; T 14.1 ° C.,1.4 wt %
same,DMFD Solubility (wt %) in Methanol,[2]; T 26.3 ° C.,2.8 wt %
same,DMFD Solubility (wt %) in Methanol,[2]; T 35.3 ° C.,4.5 wt %
same,DMFD Solubility (wt %) in Methanol,[2]; T 46.6 ° C.,8.7 wt %
same,DMFD Solubility (wt %) in Methanol,[2]; T 56.1 ° C.,15.4 wt %
same,DMFD Solubility (wt %) in Methanol,[2]; T 61.3 ° C.,20.8 wt %
